Source: US5008267A, “Pyrimidinedione compounds, method of producing the same and antiarrythmic agents containing the same” (Mitsui Toatsu Chemicals, Incorporated, priority 1988, dated 1991)
Counter-ions that a name gives are not always drawn.

Tests used:
[1] = test system: Purkinje fiber of the right ventricular free wall (myocardial action potential); assay: Influence on myocardial action potential duration time (APD75), isolated right ventricular free wall, microelectrode in Purkinje fiber; format: cell-based, dog; conditions: Canis lupus familiaris, 20 min, 20 minutes' incubation; for activation at 1 µg/mL: 1.0 μg/ml; for activation at 1 µg/mL / activation at 3 µg/mL / activation at 10 µg/mL: (B-A)/A×100, read-out: APD75 (%); for activation at 3 µg/mL: 3.0 μg/ml; for activation at 10 µg/mL: 10.0 μg/ml
[2] = test system: ventricular muscle refractory period; assay: Influence on ventricular muscle refractory period (ERP); format: in vivo, mongrel dog; conditions: Canis lupus familiaris, iv, i.v., (W-Y)/Y×100, read-out: ERP (%; extensibility of refractory period)
Description: (2) Influence on ventricular muscle refractory period Refractory periods were measured in the following manner before and after each of the compounds and d-sotalol shown in Table 2 was separately administered to a vein or a duodenum, and ERP (%; extensibility of refractory period) was calculated from the measured values: ERP (%)=(W-Y)/Y×100 W: Refractory period after administration Y: Refractory period before administration To a mongrel adult dog, 30 mg/kg of pentobarbital was administered intravenously, and after being anesthetized, a pair of silver-silver chloride electrodes separated by 3 mm was sewn on an opened right ventricule, and electrical stimulation was given at an interval of 400 msec at a duration time of 4 msec under a current twice as much as the threshold. Afterward, a small amount of alcohol was injected into a sinus artery in order to extinguish a pacemaker activity, and the ventricular refractory period (ERP) was measured under ventricule pacing. That is, each 1 train comprised 10 stimulations having intervals of 400 msec, and an interval between the trains was usually 400 msec. However, this interval was shortened 10 msec by 10 msec at the time of the refractory period measurement, and an interval between the trains at the time when reaction to the first stimulation of the train disappeared was regarded as the refractory period. In this case, the electrical stimulation was fed in accordance with a program by a heart stimulation device (Diamedical Co., Ltd.; DHM-226-3).

[3] = Toxicity test, mortality rate 24 hours after administration; conditions: mouse, in vivo
Description: Each of the compounds prepared in the above-mentioned examples was administered into a mouse (ddY strain, male). In each case, oral administration (p.o.) and intra peritoneal administration (i.p.) were separately carried out in a dose of 300 mg/kg and 250 mg/kg, respectively.
A mortality rate (number of specimens: one group=2 to 4 mice) of the mice 24 hours after the administration was calculated, and the results are set forth in Table 3.
Following the same procedure as in Toxicity Test 1, toxicity of the respective compounds prepared in the above examples in Table 5 was tested to calculate a mortality rate of mice.
Administration was made by oral administration (p.o.) in an amount of 300 mg/kg of each compound for one mouse.
Following the same procedure as in Toxicity Test 1, toxicity of the respective compounds prepared in the above examples in Table 7 was tested to calculate a mortality rate of mice.

Structure (SMILES) | activation at 1 µg/mL [1] [%] | activation at 3 µg/mL [1] [%] | activation at 10 µg/mL [1] [%] | change in vivo at 0.1 mg/kg [2] [%] | change in vivo at 0.3 mg/kg [2] [%] | change in vivo at 1 mg/kg [2] [%] | change in vivo at 3 mg/kg [2] [%] | mortality at 24 h ([3]; ip, 250 mg/kg (i.p.)) [%] | mortality at 24 h ([3]; po, 300 mg/kg (p.o.)) [%] | activation at 0.3 µg/mL ([1]; 0.3 μg/ml, (B-A)/A×100) [%]
CCN(CCNCCCCc1ccc([N+](=O)[O-])cc1)c1cc(=O)n(C)c(=O)n1C [Compound 26, 1,3-dimethyl-6-{N-ethyl-N-<2-[4-(4-nitrophenyl)butylamino]ethyl>amino}-2,4(1H,3H)-pyrimidinedione oxalate] | 20 | 30 | 35 | 6.5 | 6.5 | 6.5 | 6.5 | 50 | 0 | 
Cn1c(NCCNC(=O)c2ccc([N+](=O)[O-])cc2)cc(=O)n(C)c1=O [Compound 56, 1,3-dimethyl-6-[2-(4-nitrobenzoylamino)ethylamino]-2,4(1H,3H)-pyrimidinedione] |  |  |  | 6.7 | 6.7 | 6.7 |  |  | 50 | 
Cn1c(N2CCN(CCCOc3ccc([N+](=O)[O-])cc3C(=O)c3ccccc3Cl)CC2)cc(=O)n(C)c1=O [Compound 105, 1,3-dimethyl-6-{4-<3-[2-(2-chlorobenzoyl)-4-nitrophenoxy]propyl>piperazin-1-yl}-2,4(1H,3H)-pyrimidinedione oxalate] | 11 | 23 | 28 | 0 | 0 | 6.3 | 6.3 |  | 0 | 
Cn1c(N2CCN(CCCOc3ccc([N+](=O)[O-])cc3Cl)CC2)cc(=O)n(C)c1=O [Compound 141, 1,3-dimethyl-6-{4-[3-(2-chloro-4-nitrophenyloxy)propyl]piperazin-1-yl}-2,4(1H,3H)-pyrimidinedione hydrochloride] | 27 | 41 |  | 0 | 2.1 | 2.1 | 15 |  | 0 | 
Cn1c(N2CCN(CCCCc3ccc([N+](=O)[O-])cc3)CC2)cc(=O)n(C)c1=O [Compound 34, 1,3-dimethyl-6-{4-[4-(4-nitrophenyl)butyl]piperazine-1-yl}-2,4(1H,3H)-pyrimidinedione hydrochloride] |  | 17 | 25 | 6 | 12 | 12 | 18 |  | 100 | 
CCN(CCNc1ccc([N+](=O)[O-])cc1)CCNc1cc(=O)n(C)c(=O)n1C [Compound 71, 1,3-dimethyl-6-{2-[N-ethyl-2-(4-nitroanilino)ethylamino]ethylamino}-2,4(1H,3H)-pyrimidinedione oxalate] | 8 | 15 | 17 | 6.7 | 7.7 | 13.4 | 16.6 |  | 0 | 
Cn1c(NCCN(CCO)CCCc2ccc([N+](=O)[O-])cc2)cc(=O)n(C)c1=O [Compound 8] | 22 | 38 |  | 0 | 10.7 | 21.4 | 14.2 | 0 | 0 | 16
COC(=O)CN(CCCNc1ccc([N+](=O)[O-])cc1)CCNc1cc(=O)n(C)c(=O)n1C [Compound 166, 1,3-dimethyl-6-{2-[N-methoxycarbonylmethyl-3-(4-nitroanilino)propylamino]ethylamino}-2,4(1H,3H)-pyrimidinedione hydrochloride] | 8 | 18 |  | 6.7 | 6.7 | 6.7 | 6.7 |  | 0 | 
Cn1c(N2CCN(CCCOc3cc([N+](=O)[O-])ccc3O)CC2)cc(=O)n(C)c1=O [Compound 145, 1,3-dimethyl-6-{4-[3-(2-hydroxy-5-nitrophenyloxy)propyl]piperazin-1-yl}-2,4(1H,3H)-pyrimidinedione hydrochloride] | 7 | 16 | 23 | 0 | 6.7 | 6.7 | 20 |  | 0 | 
Cn1c(N2CCN(CCc3ccc([N+](=O)[O-])cc3C(=O)c3ccccc3)CC2)cc(=O)n(C)c1=O [Compound 133, 1,3-dimethyl-6-(4-[2-(2-benzoyl-4-nitrophenyl)ethyl]piperazin-1-yl)-2,4(1H,3H)-pyrimidinedione oxalate] |  |  |  | 6.3 | 6.3 | 18.8 |  |  | 0 | 
CCOC(=O)CN(CCCc1ccc([N+](=O)[O-])cc1)CCNc1cc(=O)n(C)c(=O)n1C [Compound 175, 1,3-dimethyl-6-{2-[N-ethoxycarbonylmethyl-3-(4-nitrophenyl)propylamino]ethylamino}-2,4(1H,3H)-pyrimidinedione oxalate] | 8 | 16 |  |  |  |  |  |  | 0 | 
Cn1c(N2CCN(CCCCOc3ccc([N+](=O)[O-])cc3)CC2)cc(=O)n(C)c1=O [Compound 54, 1,3-dimethyl-6-{4-[4-(4-nitrophenoxy)butyl]piperazin-1-yl}-2,4(1H,3H)-pyrimidinedione hydrochloride] |  | 15 | 26 |  |  |  |  |  | 0 | 
Cn1c(NCCN(CCO)CCCCc2ccc([N+](=O)[O-])cc2)cc(=O)n(C)c1=O [Compound 23] | 18 | 35 | 39 |  |  |  |  |  | 0 | 
Cn1c(N2CCN(CCOc3ccc([N+](=O)[O-])cc3C(=O)c3ccc(Br)cc3)CC2)cc(=O)n(C)c1=O [Compound 100] |  |  |  |  |  |  |  |  | 0 | 
CCN(CCCCc1ccc([N+](=O)[O-])cc1)CCNc1cc(=O)n(C)c(=O)n1C [Compound 22] |  |  |  |  |  |  |  | 50 | 0 | 
CC(=O)c1ccc(OCCCN2CCN(c3cc(=O)n(C)c(=O)n3C)CC2)c([N+](=O)[O-])c1 [Compound 77, 1,3-dimethyl-6-{4-[3-(4-acetyl-2-nitrophenoxy)propyl]piperazin-1-yl}-2,4(1H,3H)-pyrimidinedione oxalate] |  |  |  |  |  |  |  |  | 0 | 
Cn1c(N2CCN(Cc3ccc([N+](=O)[O-])cc3C(=O)c3ccccc3)CC2)cc(=O)n(C)c1=O [Compound 134, 1,3-dimethyl-6-{4-[(2-benzoyl-4-nitrophenyl)methyl]piperazin-1-yl}-2,4(1H,3)-pyrimidinedione oxalate] |  |  |  |  |  |  |  |  | 0 | 
Cn1c(N2CCN(c3ccc([N+](=O)[O-])cc3C(=O)c3ccccc3)CC2)cc(=O)n(C)c1=O [Compound 128, 1,3-dimethyl-6-{4-(2-benzoyl-4-nitrophenyl)piperazin-1-yl}-2,4(1H,3H)-pyrimidinedione oxalate] |  |  |  |  |  |  |  |  | 0 | 
